Reference: patent US7563791B2, “Pyrrolotriazine derivatives useful for treating hyper-proliferative disorders and diseases associated with angiogenesis” (Bayer Pharmaceuticals Corporation, priority 2004, dated 2009)

Test system: VEGF stimulated Phospho-ERK in HUVEC
Assay: Growth factor stimulated p-ERK assay in HUVECs (VEGF stimulation, ERK1/2 Bioplex)
Assay type: cell-based
Conditions: Homo sapiens, compound 2 hrs, then 50 ng/ml VEGF 10 min; for inhibition at 0.1 µM: @ 100 nM
Experimental: Growth Factor Stimulated p-ERK assay in HUVECs
Exponentially growing human endothelial HUVECs cells (human umbilical vein endothelial cells, cat# CC-2517, Cambrex, Walkersville, Md.) were seeded at twenty five thousand cells/well in 96 well plates in EBM-2 MV medium with growth factors (cat# CC-3202, Cambrex) and grown at 37° C. in 5% CO2. Sixteen hours post-plating, the cells were changed to serum-free medium (RPMI 1640 containing 0.1% BSA (bovine serum albumin) and compounds were added at different concentrations for 2 hrs, after which the cells were stimulated for 10 min with 50 ng/ml of either VEGF (vascular endothelial growth factor, Protein Sciences, Meriden, Conn.) or bFGF (basic fibroblast growth factor cat# PHG0026, Biosource International, Camarillo, Calif.). The rest of the assay was performed per manufacturer indications for the ERK½ Bioplex assay (cat#171-304004, Bio-Rad, Hercules, Calif.). After removing culture medium by aspiration, the cells were quickly rinsed with 100 μl of cell wash buffer A to stop treatment reaction. Eighty microliters of cell lysis buffer were then immediately added to each well of the 96 well plate which was put on ice. Cells in each well were lysed by pipetting up and down 5 times with a multi-channel pipet. The plate was then agitated on a microtiter plate shaker at 300 rpm for 20 min at 4° C. Cellular debris were pelleted by centrifugation at 4500 g for 15 min at 4° C. and the supernatant was collected. Forty five microliters of supernatant was diluted with an equal volume of Bio-Plex phosphoprotein assay Buffer B, The coupled and color coated beads were added into a 96 well filter plate, and the prepared lysates were added. The beads and lysate mixture was incubated at room temperature for 15-18 hrs. The following day, the plate was vacuum-filtered and then washed 3×. Twenty-five microliters of detection antibody solution were added to each well and the plate was then incubated for 30 min at room temperature. The plate was then vaccum-filtered and washed as described previously. Fifty microliters of streptavidin-PE solution was added to each well, the plate was incubated for 10 min at room temperature and then was then vaccum-filtered and washed as described above. One hundred twenty-five microliters of resuspension buffer was added to each well and data were acquired on the Luminex 100 instrument (Bio-Rad).

SMILES	inhibition at 0.1 µM [%]	inhibition at 1 µM [%]	inhibition at 10 µM [%]
COCCNC(=O)c1cn2ncnc(N)c2c1-c1ccc(NC(=O)Nc2cccc(SC(F)(F)F)c2)cc1 [Example 131, 4-amino-N-(2-methoxyethyl)-5-(4-{[({3-[(trifluoromethyl)thio]phenyl}amino)carbonyl]amino}phenyl)pyrrolo[2,1-f][1,2,4]triazine-6-carboxamide]	< 50	> 50	–
CCOC(=O)c1cn2ncnc(N)c2c1-c1ccc(NC(=O)Nc2ccc(Cl)c(Cl)c2)cc1 [Example 18, ethyl 4-amino-S-[4-({[(3,4-dichlorophenyl)amino]carbonyl}amino)phenyl]pyrrolo[2,1-f][1,2,4]triazine-6-carboxylate]	< 50	< 50	> 50
CN(C)CCNCc1cn2ncnc(N)c2c1-c1ccc(NC(=O)Nc2cc(C(F)(F)F)ccc2F)cc1 [Example 37, N-{4-[4-amino-6-({[2-(dimethylamino)ethyl]amino}methyl)pyrrolo[2,1-f][1,2,4]triazin-5-yl]phenyl}-N′-[2-fluoro-5-(trifluoromethyl)phenyl]urea]	< 50	> 50	–
Cc1cn2ncnc(N)c2c1-c1ccc(NC(=O)Nc2cc(C(F)(F)F)ccc2F)cc1 [Example 85, N-[4-(4-amino-6-methylpyrrolo[2,1-f][1,2,4]triazin-5-yl)phenyl]-N′-[2-fluoro-5-(trifluoromethyl)phenyl]urea]	< 50	> 50	–
CCOC(=O)c1cn2ncnc(N)c2c1-c1ccc(NC(=O)Nc2cc(C(C)(C)C)nn2C)cc1 [Example 49, ethyl 4-amino-5-[4-({[(3-tert-butyl-1-methyl-1H-pyrazol-5-yl)amino]carbonyl}amino)phenyl]pyrrolo[2,1-f][1,2,4]triazine-6-carboxylate]	> 50	–	–
CCOC(=O)c1cn2ncnc(N)c2c1-c1ccc(NC(=O)Nc2cccc(OCCN(CC)CC)c2)cc1 [Example 98, ethyl 4-amino-5-(4-{[({3-[2-(diethylamino)ethoxy]phenyl}amino)carbonyl]amino}phenyl)pyrrolo[2,1-f][1,2,4]triazine-6-carboxylate]	< 50	< 50	> 50
Nc1ncnn2cc(C(=O)NCC3CCCO3)c(-c3ccc(NC(=O)Nc4cc(C(F)(F)F)ccc4F)cc3)c12 (stereo not drawn) [Example 146, 4-amino-5-{4-[({[2-fluoro-5-(trifluoromethyl)phenyl]amino}carbonyl)amino]phenyl}-N-(tetrahydrofuran-2-ylmethyl)pyrrolo[2,1-f][1,2,4]triazine-6-carboxamide]	< 50	> 50	–
CCOC(=O)c1cn2ncnc(N)c2c1-c1ccc(NC(=O)Nc2ccc3c(cnn3C)c2)cc1 [Example 12]	> 50	–	–
CCOC(=O)c1cn2ncnc(N)c2c1-c1ccc(NC(=O)Nc2cc(C(F)(F)F)ccc2F)cc1 [Example 1, ethyl 4-amino-5-{4-[({[2-fluoro-5-(trifluoromethyl)phenyl]amino}carbonyl)amino]phenyl}pyrrolo[2,1-f][1,2,4]triazine-6-carboxylate]	> 50	–	–
CCOC(=O)c1cn2ncnc(N)c2c1-c1ccc(NC(=O)Nc2ccc(OC(F)(F)F)cc2)cc1 [Example 11, ethyl 4-amino-5-{4-[({[4-(trifluoromethoxy)phenyl]amino}carbonyl)amino]phenyl}pyrrolo[2,1-f][1,2,4]triazine-6-carboxylate]	< 50	> 50	–
CCOC(=O)c1cn2ncnc(N)c2c1-c1ccc(NC(=O)Nc2cc(C(F)(F)F)ccc2N2CCOCC2)cc1 [Example 27, ethyl 4-amino-5-{4-[({[2-morpholin-4-yl-5-(trifluoromethyl)phenyl]amino}carbonyl)amino]phenyl}pyrrolo[2,1-f][1,2,4]triazine-6-carboxylate]	> 50	–	–
N#Cc1cn2ncnc(N)c2c1-c1ccc(NC(=O)Nc2cccc(C(F)(F)F)n2)cc1 [Example 168, N-[4-(4-amino-6-cyanopyrrolo[2,1-f][1,2,4]triazin-5-yl)phenyl]-N′-[6-(trifluoromethyl)pyridin-2-yl]urea]	< 50	> 50	–
CCOC(=O)c1cn2ncnc(N)c2c1-c1ccc(NC(=O)Nc2ccccc2)cc1 [Example 23, ethyl 4-amino-5-{4-[(anilinocarbonyl)amino]phenyl}pyrrolo[2,1-f][1,2,4]triazine-6-carboxylate]	> 50	–	–
CCOC(=O)c1cn2ncnc(N)c2c1-c1ccc(NC(=O)Nc2cc(C(F)(F)F)cc(C(F)(F)F)c2)cc1 [Example 26, ethyl 4-amino-5-{4-[({[3,5-bis(trifluoromethyl)phenyl]amino}carbonyl)amino]phenyl}pyrrolo[2,1-f][1,2,4]triazine-6-carboxylate]	< 50	> 50	–
Nc1ncnn2cc(C(=O)NCC(F)(F)F)c(-c3ccc(NC(=O)Nc4ccnc(C(F)(F)F)c4)cc3)c12 [Example 140, 4-amino-N-(2,2,2-trifluoroethyl)-5-{4-[({[2-(trifluoromethyl)pyridin-4-yl]amino}carbonyl)amino]phenyl}pyrrolo[2,1-f][1,2,4]triazine-6-carboxamide]	< 50	< 50	> 50
CCOC(=O)c1cn2ncnc(N)c2c1-c1ccc(NC(=O)Nc2ccccc2C(C)C)cc1 [Example 24, ethyl 4-amino-5-[4-({[(2-isopropylphenyl)amino]carbonyl}amino)phenyl]pyrrolo[2,1-f][1,2,4]triazine-6-carboxylate]	< 50	> 50	–
NC(=O)c1cn2ncnc(N)c2c1-c1ccc(NC(=O)Nc2cc(C(F)(F)F)ccc2F)cc1 [Example 104, 4-amino-5-{4-[({[2-fluoro-5-(trifluoromethyl)phenyl]amino}carbonyl)amino]phenyl}pyrrolo[2,1-f][1,2,4]triazine-6-carboxamide]	< 50	< 50	> 50
CCOC(=O)c1cn2ncnc(N)c2c1-c1ccc(NC(=O)Nc2ccccc2OC(F)(F)F)cc1 [Example 8, ethyl 4-amino-5-{4-[({[2-(trifluoromethoxy)phenyl]amino}carbonyl)amino]phenyl}pyrrolo[2,1-f][1,2,4]triazine-6-carboxylate]	> 50	–	–
Nc1ncnn2cc(CNc3cccnc3)c(-c3ccc(NC(=O)Nc4cc(C(F)(F)F)ccc4F)cc3)c12 [Example 47, N-(4-{4-amino-6-[(pyridin-3-ylamino)methyl]pyrrolo[2,1-f][1,2,4]triazin-5-yl}phenyl)-N′-[2-fluoro-5-(trifluoromethyl)phenyl]urea]	< 50	> 50	–
CCOC(=O)c1cn2ncnc(N)c2c1-c1ccc(NC(=O)Nc2ccc3c(c2)OC(F)(F)O3)cc1 [Example 14, ethyl 4-amino-5-[4-({[(2,2-difluoro-1,3-benzodioxol-5-yl)amino]carbonyl}amino)phenyl]pyrrolo[2,1-f][1,2,4]triazine-6-carboxylate]	< 50	< 50	> 50
